The text below walks through data of patent publication EP0938474B1, “CYCLOPROPYLINDOLE COMPOUNDS AND THEIR USE AS PRODRUGS” (AUCKLAND UNISERVICES LIMITED, priority 1996, dated 1998).

Molecules are shown by their SMILES.

The subject of one test is SC3.2. The test is described as follows: Cytotoxicity in cells transfected with bacterial nitroreductase (NR+). The format is cell-based. The note with it: Homo sapiens, SK-OV-3; SC3.2 (NR+ transfected counterpart of SKOV3); IC50, unit inferred; read-out: Human ovarian lines NR+. The text has this:
(§1) Compounds of the invention were further tested against human cell lines (NR+ in Table 3) transfected with a gene encoding a bacterial nitroreductase (NR) enzyme to test for activation of compounds of the invention with NR. Untransfected control cells (NR- in Table 3) were used as controls. The cells used were the human colon NR-(wild-type) line WIDR and its transfected NR+ counterpart WC14.10; and the human ovarian NR- (wild-type) line SKOV3 together with its NR+ (transfected) counterpart SC3.2. The results are shown in Table 3, which also indicates the ratios of IC50s. These are intra-experiment values, and may differ slightly from those calculated from the given NR- and NR+ values.

For the next test, the system named is WC14.10. Described as above. It counts as cell-based. Particulars: Homo sapiens; WC14.10 (NR+ transfected counterpart of WIDR); IC50, unit inferred; read-out: Human colon lines NR+.
Text: as §1

The subject of test [1] is human colon NR-(wild-type) line WIDR. Briefly: Cytotoxicity in untransfected control cells (NR-), nitroreductase activation test. It counts as cell-based. The note with it: IC50, unit inferred, read-out: Human colon lines NR-.
Text: as §1

Test [2] concerns human ovarian NR- (wild-type) line SKOV3. Described as above. It counts as cell-based. Particulars: SK-OV-3, IC50, unit inferred, read-out: Human ovarian lines NR-.
Text: as §1

The test system of the next test is AA8. Briefly: Cytotoxicity (growth inhibition), 4 h drug exposure, methylene blue staining. It counts as cell-based. Particulars: Cricetulus griseus, CHO-AA8; AA8 wild type rodent cell line; 4 hours exposure, then three days incubation. The method, then: (§2) Compounds of the invention were tested for cytotoxicity against four different cell lines, all of which are widely available in the art. AA8 is a wild type rodent cell line. UV4 is a mutant AA8 cell line defective in excision repair, and hypersensitive to many alkylating agents. EMT6 is a widely-used rodent line. SKOV is a human ovarian cell line.
(§3) Cell culture assays were performed in 96-well microtitre trays. Compounds of the invention were added in culture medium, using serial two-fold dilutions to provide duplicate cultures at five different concentrations for each of eight drugs (plus eight controls) per tray. Drugs were dissolved in water or DMSO immediately prior to addition to the cell culture. After 4 hours, drugs were removed by washing cultures three times with fresh medium, and the trays were incubated for a futher three days. Cell density was then determined by staining with methylene blue as described previously (Finlay, G. J., et al, Anal. Biochm. 1984, 139, 272-277) and the IC50 was calculated as the drug concentration providing 50% inhibition of growth relative to the controls.

Another test deals with SKOV3. Described as above. The note with it: SK-OV-3; human ovarian cell line; 4 hours exposure, then three days incubation. It counts as cell-based. The method, then: as §2, §3
Another test concerns EMT6. Described as above. The note with it: Mus musculus; EMT6 rodent line; 4 hours exposure, then three days incubation. It counts as cell-based. The method, then: as §2, §3
For the next test, the system named is UV4. The description is as above. It counts as cell-based, rodent. The note with it: Cricetulus griseus; UV4 mutant AA8 line defective in excision repair; 4 hours exposure, then three days incubation. The method, then: as §2, §3

Take `COc1cc2cc(C(=O)N3CC(CCl)c4c3cc([N+](=O)[O-])c3ccccc43)[nH]c2c(OC)c1OC` (racemic) [14a]: the IC50 with SC3.2 was determined as 140 nM; with WC14.10, 380 nM; in test [1], 1300 nM; in test [2] it was 1600 nM.

For `COc1cc2cc(C(=O)N3C[C@H](CCl)c4c3cc([N+](=O)[O-])c3ccccc43)[nH]c2c(OC)c1OC` [14aR], the IC50 was 300 nM in the test on SC3.2, > 20000 nM in the test with WC14.10, > 20000 nM in test [1] and > 20000 nM in test [2].

As to `COc1cc2cc(C(=O)N3C[C@@H](CCl)c4c3cc([N+](=O)[O-])c3ccccc43)[nH]c2c(OC)c1OC` [14aS], the IC50 in the test on SC3.2 was determined as 40 nM; in the test on WC14.10 it was 90 nM; in test [1], 350 nM; in test [2], 400 nM.

Take `O=C(c1cc2cc([N+](=O)[O-])ccc2[nH]1)N1CC(CCl)c2c1cc([N+](=O)[O-])c1ccccc21` (centres unmarked) [14b, 1-(chloromethyl)-5-nitro-3-[(5-nitroindol-2-yl)carbonyl]-1,2-dihydro-3H-benz[e]indole]: the IC50 was 390 nM in the test with SC3.2, 210 nM with WC14.10, 390 nM in test [1] and 400 nM in test [2].

As for `CC(=O)Nc1ccc2[nH]c(C(=O)N3CC(CCl)c4c3cc([N+](=O)[O-])c3ccccc43)cc2c1` (centres unmarked) [14c, 3-[[5-(acetylamino)indol-2-yl]carbonyl]-1-(chloromethyl)-5-nitro-1,2-dihydro-3H-benz[e]indole], the IC50 came out at 250 nM with SC3.2, 360 nM in the test on WC14.10, 1600 nM in test [1] and 4300 nM in test [2].

For `COc1ccc2[nH]c(C(=O)N3CC(CCl)c4c3cc([N+](=O)[O-])c3ccccc43)cc2c1` (centres unmarked) [14d, 1-(chloromethyl)-3-[(5-methoxyindol-2-yl)carbonyl]-5-nitro-1,2-dihydro-3H-benz[e]indole], the IC50 in the test on SC3.2 came out at 150 nM; with WC14.10, 290 nM; in test [1], 740 nM; in test [2], 580 nM.

As to `COc1cc2cc(C(=O)N3CC(CCl)c4c3cc(N)c3ccccc43)[nH]c2c(OC)c1OC` (centres unmarked) [15a, 5-amino-1-(chloromethyl)-3-[(5,6,7-trimethoxyindol-2-yl)carbonyl]-1,2-dihydro-3H-benz [e] indole], the IC50 in the test on AA8 was found to be 0.45 nM; in the test with SKOV3 it was 1 nM; in the test with EMT6, 0.27 nM; with UV4, 0.28 nM.

In the case of `COc1cc2cc(C(=O)N3C[C@H](CCl)c4c3cc(N)c3ccccc43)[nH]c2c(OC)c1OC` [15aR, (R)-5-amino-1-(chloromethyl)-3-[(5,6,7-trimethoxyindol-,2-yl)carbonyl]-1,2-dihydro-3H-benz[e]indole], the IC50 in the test with AA8 worked out at 13.6 nM; with SKOV3, 7.8 nM; in the test on EMT6, 7 nM; in the test with UV4 it was 2.6 nM.

Consider `COc1cc2cc(C(=O)N3C[C@@H](CCl)c4c3cc(N)c3ccccc43)[nH]c2c(OC)c1OC` [15aS, (S)-5-amino-1-(chloromethyl)-3-[(5,6,7-trimethoxyindol-2-yl)carbonyl]-1,2-dihydro-3H-benz[e]indole], for which the IC50 with AA8 amounted to 0.2 nM; in the test with SKOV3, 0.5 nM; with EMT6, 0.1 nM; with UV4, 0.1 nM.

For the compound `Nc1ccc2[nH]c(C(=O)N3CC(CCl)c4c3cc(N)c3ccccc43)cc2c1` (centres unmarked) [15b, 5-amino-3-[(5-aminoindol-2-yl)carbonyl]-1-(chloromethyl)-1,2-dihydro-3H-benz [e] indole], the IC50 in the test on AA8 came out at 2.4 nM; in the test on SKOV3, 3 nM; in the test on EMT6, 0.8 nM; in the test on UV4 it was 1 nM.

In the case of `CC(=O)Nc1ccc2[nH]c(C(=O)N3CC(CCl)c4c3cc(N)c3ccccc43)cc2c1` (centres unmarked) [15c, 3-[[5-(acetylamino)indol-2-yl]carbonyl]-5-amino-1-(chloromethyl)-1,2-dihydro-3H-benz[e]indole], the IC50 worked out at 12.5 nM in the test on AA8, 18 nM with SKOV3, 5.2 nM in the test on EMT6 and 7.6 nM in the test with UV4.

Take `COc1ccc2[nH]c(C(=O)N3CC(CCl)c4c3cc(N)c3ccccc43)cc2c1` (centres unmarked) [15d, 5-amino-1-(chloromethyl)-3-[(5-methoxyindol-2-yl)carbonyl]-1,2-dihydro-3H-benz[e] indole]: the IC50 with AA8 is 1.2 nM; in the test with SKOV3 it was 1.8 nM; in the test with EMT6 it was 0.9 nM; with UV4, 0.8 nM.

As to `CN(C)CCOc1ccc2[nH]c(C(=O)N3CC(CCl)c4c3cc(N)c3ccccc43)cc2c1` (centres unmarked) [15e, 5-amino-1-(chloromethyl)-3-[[5-[2-(dimethylamino)ethoxy]indol-2-yl]carbonyl]-1,2-dihydro-3H-benz [e] indole], the IC50 in the test on AA8 came to 3.5 nM; with SKOV3, 6.4 nM; with EMT6 it was 0.9 nM; with UV4, 1.4 nM.

On to `CCCC(=O)Nc1cc(/C=C/C(=O)N2CC(CCl)c3c2cc(N)c2ccccc32)n(C)c1` (centres unmarked) [15i], for which the IC50 came out at 31 nM in the test with AA8, 22 nM in the test with SKOV3, 5.9 nM in the test on EMT6 and 16 nM in the test with UV4.

For the compound `COc1cccc(/C=C/C(=O)N2CC(CCl)c3c2cc(N)c2ccccc32)c1` (centres unmarked) [15l, 5-amino-1-(chloromethyl)-3-[(E)-3-methoxycinnamoyl]-1,2-dihydro-3H-benz[e]indole], the IC50 was determined as 0.3 nM with AA8, 0.6 nM with SKOV3, 0.2 nM with EMT6 and 0.4 nM in the test on UV4.

For `COc1cc2cc(C(=O)N3CC(COS(C)(=O)=O)c4c3cc(N)c3ccccc43)[nH]c2c(OC)c1OC` (centres unmarked) [15o, 5-amino-1-[(methanesulfonyloxy)methyl]-3-[(5,6,7-trimethoxyindol-2-yl)carbonyl]-1,2-dihydro-3H-benz[e]indole], the IC50 was 660 nM in the test on AA8, 1330 nM in the test with SKOV3 and 233 nM in the test on EMT6.

Consider `CNc1cc2c(c3ccccc13)C(CCl)CN2C(=O)c1cc2cc(OC)c(OC)c(OC)c2[nH]1` (centres unmarked) [15p, 1-(chloromethyl)-5-methylamino-3-[(5,6,7-trimethoxyindol-2-yl)carbonyl]-1,2-dihydro-3H-benz[e]indole], for which the IC50 in the test with AA8 was determined as 0.1 nM; in the test with SKOV3 it was 0.3 nM; in the test with EMT6 it was 0.1 nM; in the test on UV4, 0.1 nM.

As to `COc1cc2cc(C(=O)N3CC(CCl)c4c3cc(N(C)C)c3ccccc43)[nH]c2c(OC)c1OC` (centres unmarked) [15q, 1-(chloromethyl)-5-dimethylamino-3-[(5,6,7-trimethoxy-indol-2-yl)carbonyl]-1,2-dihydro-3H-benz [e] indole], the IC50 with AA8 came out at 5.6 nM; with SKOV3, 16 nM; in the test on EMT6, 3.8 nM; in the test on UV4 it was 3.7 nM.

As to `COC(=O)c1cc2c3c(cc(N)c2[nH]1)N(C(=O)c1cc2cc(OC)c(OC)c(OC)c2[nH]1)CC3CCl` (centres unmarked) [32a, methyl 5-amino-1-(chloromethyl)-3-[(5,6,7-trimethoxyindol-2-yl)carbonyl]-1,2-dihydro-3H-pyrrolo[3,2-e]indole-7-carboxylate], the IC50 was determined as 17 nM in the test with AA8, 14 nM in the test on SKOV3, 5.6 nM in the test on EMT6 and 1.7 nM with UV4.

`CNc1cc2c(c3cc(C(=O)OC)[nH]c13)C(CCl)CN2C(=O)c1cc2cc(OC)c(OC)c(OC)c2[nH]1` (centres unmarked) [32b, methyl 1-(chloromethyl)-5-methylamino-3-[(5,6,7-trimethoxyindol-2-yl)carbanyl]-1,2-dihydro-3H-pyrrolo[3,2-e]indole-7-carboxylate]: the IC50 in the test on AA8 was 2.4 nM; in the test on SKOV3, 1.9 nM; in the test on EMT6, 0.8 nM; in the test on UV4, 0.7 nM.

`COC(=O)c1cc2c3c(cc(N(C)C)c2[nH]1)N(C(=O)c1cc2cc(OC)c(OC)c(OC)c2[nH]1)CC3CCl` (centres unmarked) [32c, methyl 1-(chloromethyl)-5-dimethylamino-3-[(5,6,7-trimethoxyindol-2-yl)carbonyl]-1,2-dihydro-3H-pyrrolo[3,2-e]indole-7-carboxylate]: the IC50 in the test on AA8 is 12 nM; in the test with SKOV3, 12 nM; in the test on EMT6, 5.2 nM; with UV4, 3.3 nM.
